# Test results published in patent US4341798A, “Amide derivatives of p-isobutyl-phenyl-propionic acids and related pharmaceutical compositions” (Laboratori Prophin S.p.A., priority 1980, dated 1982).
# Several values for one entry are separate records, joined by “and”; a condition that tells them apart may be missing. Identical values can stand only once. Like-named read-outs stand apart in the source and are kept apart here.
# How the values were obtained:
# Solubility = format: physicochemical
# [1] = (A) Inhibition of the oedema induced by carragenin in the rat paw; format: in vivo; settings: for ED50: rat paw
# Description: (A) Inhibition of the oedema induced by carragenin in the […]. Arch. Int. Pharmacodyn. 99,474. 1954). […] The subject oedema was induced in the rat and in the control animals caused a volume increase of the paw by 57.55%.
# in vivo [2] = settings: rat
# [3] = rat
# [4] = for Mortality in 28 days: male and female rats
# [5] = (D) Analgesic activity in the Flinch-jump test in the rat; format: in vivo
# Description: (D) Analgesic activity in the Flinch-jump test in the rat.
# (Turner R. A. "Screening methods in Pharmacology" Accademic Press--New York 1965).
# [6] = (C) Analgesic activity on the stretching induced by acetic acid in the mouse; format: in vivo
# Description: (C) Analgesic activity on the "stretching" induced by acetic acid in the mouse.
# (Fennessy M. R., Lee C. R. "Methods in Narcotic Research" Eds. Ehrenpreise Neidle Dekker--New York 1975).
# [7] = (B) Inhibition of the arthritis induced by Freund adjuvant in the rat; format: in vivo
# Description: (B) Inhibition of the arthritis induced by Freund adjuvant in the rat. (Newbould B.B. Brit. Journ. of Pharmacol. 21,127, 1963).
# [8] = Teratogenic or embryotoxic action in the rabbit; format: in vivo
# [9] = Therapeutical indexes (TD50 of 28 day subacute toxicity versus ED50 of tests A-D); format: in vivo; settings: TD50 (28 days) versus ED50 of tests A-D
# [10] = Oedema induced by kaolin in the rat (chronic inflammation); format: in vivo; settings: 100 mg/kg p.o., controls 13
# Description: (§1) The anti-inflammatory activity has been tested by the classic tests of the oedema induced by kaolin and egg white, which repeat two significant and different phases in the pathogenesis of the inflammatory process.
# (§2) The kaolin, injected in the tibio-tarsal connection of the rat, gives place to a chronic inflammation, whereas the egg white, injected in the subplantar area of the rat, causes an acute inflammatory state.
# [11] = Acute toxicity by intraperitoneal route in the mouse; settings: in vivo, ip
# in vivo [12] = settings: rat, ip
# [13] = Teratogenic or embryotoxic action in the mouse; format: in vivo
# [14] = Acute toxicity by oral route in the rat; format: in vivo
# [15] = Oedema induced by egg white in the rat (acute inflammation); format: in vivo; settings: 100 mg/kg p.o., controls 20
# Description: as §1, §2
# [16] = Acute toxicity per os in the mouse; format: in vivo
# Description: The compounds of the invention have been subjected to pharmacological tests, showing that they have a modeste or even negligible toxicity.
# [17] = molecular weight taken into consideration, read-out: ED50, inhibition of carragenin oedema (molar basis)
# [18] = read-out: ED50, inhibition of carragenin oedema
# [19] = Flinch-jump test, rat, read-out: ED50, dose causing a 50% increase of the algogenic stimulus
# [20] = rat, molar basis, read-out: ED50, Flinch-jump test (molar basis)
# [21] = mouse, molar basis, read-out: ED50, stretching induced by acetic acid (molar basis)
# [22] = mouse, read-out: ED50, stretching induced by acetic acid
# [23] = rat, molar basis, read-out: ED50, Freund adjuvant arthritis (molar basis)
compound,measurement,setting,value
CC(C)Cc1ccc(C(C)C(=O)NC(CCC(=O)O)C(=O)O)cc1 (stereo not shown) [glutamic amide of the p-isobutyl-phenyl-propionic acid],solubility,Solubility,"not soluble in water, diluted HCl and cyclohexane"
"CC(C)Cc1ccc(C(C)C(=O)O)cc1 (stereo not shown) [Ibuprofen, p-isobutyl-phenyl-propionic acid]",ED50,[1]; [17],820 µmol/kg
same,ED50,[1]; [18],170 mg/kg
same,TD50 at 672 h,in vivo [2],590 µmol/kg
same,Mortality after 7 days,[3]; 250 mg/kg intraperitoneal,0/6
same,Mortality after 7 days,[3]; 360 mg/kg intraperitoneal,2/6
same,Mortality after 7 days,[3]; 520 mg/kg intraperitoneal,5/6
same,Mortality after 7 days,[3]; 750 mg/kg intraperitoneal,6/6
same,Mortality in 28 days,[4]; 25 mg/kg,0/10
same,Mortality in 28 days,[4]; 50 mg/kg,3/10
same,Mortality in 28 days,[4]; 100 mg/kg,4/10
same,Mortality in 28 days,[4]; 200 mg/kg,5/10
same,ED50,[5]; [19],108 mg/kg
same,ED50,[5]; [20],520 µmol/kg
same,ED50,[6]; [21],500 µmol/kg
same,ED50,[6]; [22],105 mg/kg
same,ED50,[7]; [23],300 µmol/kg
"CC(C)Cc1ccc(C(C)C(=O)Nc2cccc(C(F)(F)F)c2)cc1 (stereo not shown) [BT-03, p-isobutyl-phenyl-propionamide of metatrifluorotoluidine]",teratogenic or embryotoxic action,[8],have not demonstrated any teratogenic or embryotoxic action
same,times less active than Naproxene,[1]; molar basis,about 1.4 times
same,times more active than Ibuprofen,[1]; molar basis,2.8 times
same,ED50,[1]; [17],290 µmol/kg
same,ED50,[1]; [18],103 mg/kg
same,TD50 at 672 h,in vivo [2],660 µmol/kg
same,Mortality after 7 days,[3]; in vivo,1/6 and 5/6 and 6/6
same,therapeutical index compared with Ibuprofen,[9],A constant advantage
same,Kaolin test increase %,[10],7 ± 5.5%
same,LD50,[11]; female mice,1190 mg/kg
same,LD50,[11]; male mice,940 mg/kg
same,LD50,"in vivo [12]; LD50 by intraperitoneal route in the rat, female rats",1760 mg/kg
same,LD50,"in vivo [12]; LD50 by intraperitoneal route in the rat, male rats",1620 mg/kg
same,LD50,"in vivo [12]; LD50 ± f.l. (P 0,05), intraperitoneal, f.l. = fiduciary limits",1200 ± 264 mg/kg
same,animals died during the test period,"[4]; rat, in vivo, 200 mg/kg",two
same,teratogenic or embryotoxic action,[13],have not demonstrated any teratogenic or embryotoxic action
same,acute toxicity,[14]; both by oral and by intraperitoneal route,very low acute toxicity
same,LD50,"[14]; rat, in vivo, po, 4000 mg/kg",> 4000 mg/kg
same,ED50,[5]; [19],129 mg/kg
same,"activity, times greater than that of the reference substance (Ibuprofen)",[5]; molar basis,about 1.4 times
same,increase of the algogenic threshold,[5]; rat,"increase of the algogenic threshold, proportionally to the administered dose"
same,ED50,[5]; [20],370 µmol/kg
same,Egg white test increase %,[15],10 ± 5.1%
same,solubility,Solubility,insoluble in water and soluble in most organic solvents
same,times more active than Ibuprofen,[6]; molar basis,"about 1,4 times"
same,inhibition of stretching,[6]; mouse,does inhibit the stretching induced by acetic acid proportionally to the administered dose
same,ED50,[6]; [21],350 µmol/kg
same,ED50,[6]; [22],123 mg/kg
same,ED50,"[7]; Freund adjuvant, rat, read-out: ED50, dose which causes the volume increase of the paw to be reduced by 50%",87 mg/kg
same,activity with respect to Ibuprofen,[7]; proportionally to the administered doses,superior as regards the activity and of lower toxicity with respect to Ibuprofen
same,inhibition of lesions directly induced by Freund adjuvant in the injected paw,[7]; rat,inhibit the lesions directly induced by the Freund adjuvant in the injected paw
same,inhibition of the development of secundary lesions,[7]; rat,capable of inhibiting the development of the secundary lesions
same,ED50,[7]; [23],250 µmol/kg
same,LD50 by oral route in the mouse,[16],has not permitted as well to determine any LD50 value
"COc1ccc2cc([C@H](C)C(=O)O)ccc2c1 [Naproxene, d-2(6'-methoxy-2'-naphtyl)-propionic acid]",ED50,[1]; [17],210 µmol/kg
same,ED50,[1]; [18],47.9 mg/kg
same,Mortality in 28 days,[4]; 25 mg/kg,2/10
same,Mortality in 28 days,[4]; 50 mg/kg,6/10
same,Mortality in 28 days,[4]; 100 mg/kg,10/10
lysinamide of p-isobutyl-phenyl-propionic acid,Kaolin test increase %,[10],7.1 ± 5.3%
same,Egg white test increase %,[15],11 ± 5.6%
